{"source": "patent US20220000893A1", "about": "“METHOD FOR TREATING T-HELPER TYPE 2 MEDIATED DISEASE” (|NSERM (INSTITUT NATIONAL DE LA SANTÉ ET DE LA RECHERCHE …, priority 2018, published 2022)", "test_system": "differentiating wild-type Th2 cells", "assay": "Th2 cell differentiation and commitment in Th2-polarizing culture with non-specific SETDB1 inhibitors; cytokine production by intracellular staining and flow cytometry", "details": "naïve CD4 T cells, 6 days in Th2-polarizing conditions; 100 nM Mithramycine A for first 4 hours, 1 nM DZNep for first 24 hours; no pro-Th1 signal; vs DMSO; PMA/Ionomycine restimulation", "description": "At the end of the culture, cytokine production was assessed by flow cytometry following T cell restimulation with PMA/Ionomycine in the presence of Monensin and intracellular staining.\nSpleen and lymph nodes (mesenteric, inguinal, axillary, brachial and cervical) were collected and digested with Liberase TM and DNAse I (Sigma). Single-cell suspensions were then pooled and depleted of erythrocytes by osmotic shock (Red Blood Cell Lysis buffer, Sigma). […] Naïve CD4 T cells, defined as CD4+CD25-CD62LhighCD44low, were labeled with fluorochrome-conjugated monoclonal antibodies specific for CD4 (GK1.5, BD Biosciences), CD25 (PC61, BD Biosciences), CD62L (MEL14, Thermo Fischer Scientific) and CD44 (IM7, BD Biosciences), and purified from the enriched fraction of CD4 T cells by fluorescence-activated cell sorting (FACS Aria, BD Biosciences). […]\nFor intracellular cytokine staining, cells were first stimulated at 37° C. with 20 ng/mL phorbol 12-myristate 13-acetate (Millipore) and 1 μg/mL ionomycin (Millipore) for 5 hours in the presence of GolgiStop™ (BD Biosciences). […] Flow cytometry was performed by using a LSRII Fortessa cytometer (BD Biosciences) or MACSQuant analyzer 10 (Myltenyi) and the data were analyzed by using FlowJo software (Tree Star). […]"}
{"smiles": "Nc1nccc2c1ncn2[C@@H]1C=C(CO)[C@@H](O)[C@H]1O", "note": "[DZNEP, 3-Deazaneplanocin A]", "values": [{"measurement": "IFN-γ production by Th2 cells (frequency of IFNg-producing cells)", "value": "start to produce pro-Th1 factor, in particular IFN-γ"}]}
